Patent publication US12427134B2, “Methods of reducing the risk of cardiovascular events in a subject with atrial fibrillation and/or atrial flutter” (priority 2019, dated 2025)

Assays:
[1] = tested on: hypertriglyceridemic patients with cardiovascular disease or at high risk for cardiovascular disease; experiment: REDUCE-IT: post hoc analyses of primary + risk and key secondary + risk composite endpoints (adding atrial fibrillation/flutter and bleeding); type: in vivo, human; details: ITT
[2] = tested on: hypertriglyceridemic patients with cardiovascular disease or at high risk for cardiovascular disease; experiment: REDUCE-IT: clinical laboratory evaluation (hematology, liver function tests, clinical chemistry, drug-induced liver injury); type: in vivo, human
Description: Clinical Laboratory Procedures and Evaluations: All clinical laboratory determinations for screening and safety were performed by a certified clinical laboratory under the supervision of the Sponsor or its designee. Whenever possible and appropriate, samples for the clinical laboratory procedures were collected after fasting for at least 10 hours. For the purposes of this study, fasting was defined as nothing by mouth except water (and any essential medications). The investigator reviewed and signed all laboratory test reports. At screening, patients who had laboratory values that are outside the exclusionary limits specified in the exclusion criteria were not enrolled in the study (patients would have been considered for the study if values were classified as not clinically significant by the investigator). After randomization, the investigator was notified if laboratory values were outside of their normal range. In this case, the investigator was required to conduct clinically appropriate follow-up procedures.
Safety Laboratory Tests: The safety parameters were analyzed by a certified clinical laboratory at screening (Visit 1 or Visit 1.1), Randomization visit (Visit 2; Day 0), Visit 3 (Day 120; −4 Months) and all other follow-up visits including the Last Visit. The safety laboratory tests included: • Hematology with complete blood count (CBC), including RBC, hemoglobin (Hgb), hematocrit (Hct), white cell blood count (WBC), white cell differential, and platelet count; and • Biochemistry panel including total protein, albumin, alkaline phosphatase, alanine am inotransferase (ALT/SGPT), aspartate am inotransferase (AST/SGOT), total bilirubin, glucose, calcium, electrolytes (sodium, potassium, chloride), blood urea nitrogen (BUN), serum creatinine, uric acid, creatine kinase, and HbA1c.
Each laboratory result was classified as low (L), normal (N), and high (H) at each visit according to the laboratory-supplied normal range. The shift from baseline was presented for each post-baseline visit and overall post-baseline visits. If multiple measurements for a test parameter were available for a post-baseline patient-visit, the most extreme value was included in the shift table. For shift from baseline to overall post-baseline visits, values from all visits (including unscheduled measurements) were included. The chemistry shift table included fasting lipid parameters. The continuous lipid values were presented as part of the efficacy analysis.
A treatment-emergent PCS high value at any time was defined as a change from a value less than or equal to the upper reference limit at baseline to a PCS high value at any post-baseline measurement. A treatment-emergent PCS low value at any time was defined as a change from a value greater than or equal to the lower reference limit at baseline to a PCS low value at any post-baseline measurement. Number (%) of patients with any post-baseline PCS laboratory values was summarized by treatment group. A listing of patients with PCS laboratory values at any time, i.e., baseline or at any post-baseline visit, were included.
DILI cases were investigated through the following analyses: • A graph of distribution of peak values of alanine aminotransferase (ALT) versus peak values of total bilirubin (TBL) during the treatment period was prepared, using a logarithmic scale. In the graph, for each patient, the peak TBL times the Upper Limit of Normal (ULN) were plotted against the peak ALT times the ULN, where the peak TBL and peak ALT may or may not have happened on the same day of liver testing. The graph was divided into 4 quadrants with a vertical line corresponding to 3×ULN for ALT and a horizontal line corresponding to 2×ULN for TBL. […]

[3] = Baseline (Visit 2), Safety population
[4] = Visit 9 (n = 8), Safety population
[5] = Visit 9 (only 8 patients had data)
[6] = any post-baseline visit, 3975 patients with data
[7] = any post-baseline visit, 3977 patients with data

CC/C=C\C/C=C\C/C=C\C/C=C\C/C=C\CCCC(=O)OCC [AMR101, eicosapentaenoic acid ethyl ester]
AFib/AFlutter + MI + Stroke + Cardiac Arrest + Sudden Cardiac Death, Rate/1000 pt yrs [1]: 29.4 /1000 pt yrs | Key Secondary + AFib/AFlutter, Rate/1000 pt yrs [1]: 33.1 /1000 pt yrs | Key Secondary + Serious Bleeding, Rate/1000 pt yrs [1]: 32.1 /1000 pt yrs | Primary + AFib/AFlutter + Serious Bleeding, Rate/1000 pt yrs [1]: 53.5 /1000 pt yrs | Primary + AFib/AFlutter, Rate/1000 pt yrs [1]: 49.0 /1000 pt yrs | Primary + Serious Bleeding, Rate/1000 pt yrs [1]: 48.2 /1000 pt yrs | AFib/AFlutter + MI + Stroke + Cardiac Arrest + Sudden Cardiac Death, subjects with event ([1]; N = 4089): 491 | AFib/AFlutter + MI + Stroke + Cardiac Arrest + Sudden Cardiac Death, subjects with event (%) ([1]; N = 4089): 12.0% | Key Secondary + AFib/AFlutter + Serious Bleeding, subjects with event ([1]; N = 4089): 625 | Key Secondary + AFib/AFlutter, subjects with event ([1]; N = 4089): 552 | Key Secondary + AFib/AFlutter, subjects with event (%) ([1]; N = 4089): 13.5% | Key Secondary + Serious Bleeding, subjects with event ([1]; N = 4089): 539 | Key Secondary + Serious Bleeding, subjects with event (%) ([1]; N = 4089): 13.2% | Primary + AFib/AFlutter + Serious Bleeding, subjects with event ([1]; N = 4089): 850 | Primary + AFib/AFlutter + Serious Bleeding, subjects with event (%) ([1]; N = 4089): 20.8% | Primary + AFib/AFlutter, subjects with event ([1]; N = 4089): 785 | Primary + AFib/AFlutter, subjects with event (%) ([1]; N = 4089): 19.2% | Primary + Serious Bleeding, subjects with event ([1]; N = 4089): 775 | Primary + Serious Bleeding, subjects with event (%) ([1]; N = 4089): 19.0% | AFib/AFlutter + MI + Stroke + Cardiac Arrest + Sudden Cardiac Death, HR (95% CI) ([1]; vs placebo): 0.789 (0.701, 0.889) | Key Secondary + AFib/AFlutter + Serious Bleeding, HR (95% CI) ([1]; vs placebo): 0.855 (0.768, 0.952) | Key Secondary + AFib/AFlutter, HR (95% CI) ([1]; vs placebo): 0.818 (0.731, 0.916) | Key Secondary + Serious Bleeding, HR (95% CI) ([1]; vs placebo): 0.789 (0.704, 0.884) | Primary + AFib/AFlutter + Serious Bleeding, HR (95% CI) ([1]; vs placebo): 0.830 (0.757, 0.910) | Primary + AFib/AFlutter, HR (95% CI) ([1]; vs placebo): 0.803 (0.731, 0.883) | Primary + Serious Bleeding, HR (95% CI) ([1]; vs placebo): 0.785 (0.714, 0.863) | ALT, mean baseline value [2, 3]: 27.72 U/L | AST, mean baseline value [2, 3]: 24.47 U/L | Hemoglobin, mean baseline value [2, 3]: 141.16 g/L | Platelet Count, mean baseline value [2, 3]: 2.4301e+11 L⁻¹ | ALT, mean change from baseline ([2]; Last Visit, Safety population): −2.33 U/L | AST, mean change from baseline ([2]; Last Visit, Safety population): −1.25 U/L | Hemoglobin, mean change from baseline ([2]; Last Visit, Safety population): -1.12 g/L | Platelet Count, mean change from baseline ([2]; Last Visit, Safety population): -5.52e+09 L⁻¹ | Increase of 3×ULN in ALT or AST and increase of 2×ULN in total bilirubin, patients ([2]; Safety population): one patient | Increase of 3×ULN in ALT or AST, increase of 2×ULN in total bilirubin, and alkaline phosphatase ≤2×ULN, patients ([2]; Safety population): one patient | Individual study drug-related hematology and clinical chemistry TEAEs, incidence ([2]; Safety population): < 0.2% | Patients with basophils PCS high >1% ([2]; Safety population): 47.0% | Patients with treatment-emergent total bilirubin >ULN ([2]; Safety population): 7.5% | TEAE blood glucose increased, patients ([2]; Safety population): 2.6% | TEAE hyperglycemia, patients ([2]; Safety population): 1.7% | TEAE hypoglycemia, patients ([2]; Safety population): 1.5% | ALT, mean change from baseline ([2]; Visit 3, Safety population): 0.39 U/L | AST, mean change from baseline ([2]; Visit 3, Safety population): 0.24 U/L | Hemoglobin, mean change from baseline ([2]; Visit 3, Safety population): 0.17 g/L | Platelet Count, mean change from baseline ([2]; Visit 3, Safety population): -2.36e+09 L⁻¹ | ALT, mean change from baseline ([2]; Visit 4, Safety population): −0.28 U/L | AST, mean change from baseline ([2]; Visit 4, Safety population): 0.03 U/L | Hemoglobin, mean change from baseline ([2]; Visit 4, Safety population): 0.85 g/L | Platelet Count, mean change from baseline ([2]; Visit 4, Safety population): -4.85e+09 L⁻¹ | ALT, mean change from baseline ([2]; Visit 5, Safety population): −1.27 U/L | AST, mean change from baseline ([2]; Visit 5, Safety population): −0.83 U/L | Hemoglobin, mean change from baseline ([2]; Visit 5, Safety population): 1.39 g/L | Platelet Count, mean change from baseline ([2]; Visit 5, Safety population): -1.05e+10 L⁻¹ | ALT, mean change from baseline ([2]; Visit 6, Safety population): −1.66 U/L | AST, mean change from baseline ([2]; Visit 6, Safety population): −1.10 U/L | Hemoglobin, mean change from baseline ([2]; Visit 6, Safety population): 0.92 g/L | Platelet Count, mean change from baseline ([2]; Visit 6, Safety population): -1.368e+10 L⁻¹ | ALT, mean change from baseline ([2]; Visit 7, Safety population): −2.80 U/L | AST, mean change from baseline ([2]; Visit 7, Safety population): −1.56 U/L | Hemoglobin, mean change from baseline ([2]; Visit 7, Safety population): 0.64 g/L | Platelet Count, mean change from baseline ([2]; Visit 7, Safety population): -1.73e+10 L⁻¹ | Platelet count, greatest mean decrease from baseline excluding Visit 9 ([2]; Visit 8): 1.85e+10 L⁻¹ | ALT, mean change from baseline ([2]; Visit 8, Safety population): −3.42 U/L | AST, mean change from baseline ([2]; Visit 8, Safety population): −1.66 U/L | Hemoglobin, mean change from baseline ([2]; Visit 8, Safety population): -0.33 g/L | Platelet Count, mean change from baseline ([2]; Visit 8, Safety population): -1.854e+10 L⁻¹ | ALT, mean change from baseline [2, 4]: −1.25 U/L | AST, mean change from baseline [2, 4]: 0.25 U/L | Hemoglobin, mean change from baseline [2, 4]: -4.13 g/L | Platelet Count, mean change from baseline [2, 4]: -3.288e+10 L⁻¹ | Hemoglobin, greatest mean change from baseline [2, 5]: -4.1 g/L | Platelet count, greatest mean decrease from baseline [2, 5]: 3.29e+10 L⁻¹ | ALT or AST >3 × ULN and Total Bilirubin >2 × ULN, % patients [2, 6]: (0.0) % | ALT or AST >3 × ULN and Total Bilirubin >2 × ULN, n patients [2, 6]: 1 | ALT or AST >3 × ULN, % patients [2, 6]: (1.5) % | ALT or AST >3 × ULN, Total Bilirubin >2 × ULN, and ALP ≤2 × ULN, % patients [2, 6]: (0.0) % | ALT or AST >3 × ULN, Total Bilirubin >2 × ULN, and ALP ≤2 × ULN, n patients [2, 6]: 1 | ALT or AST >3 × ULN, n patients [2, 6]: 61 | PCS High >3 × ULN (AST) and >2 × ULN (Total Bilirubin), % patients [2, 6]: (0.0) % | PCS High >3 × ULN (AST) and >2 × ULN (Total Bilirubin), n patients [2, 6]: 1 | Treatment-emergent AST >3 × ULN, % patients [2, 6]: (0.9) % | Treatment-emergent AST >3 × ULN, n patients [2, 6]: 36 | Treatment-emergent AST >ULN, % patients [2, 6]: (23.4) % | Treatment-emergent AST >ULN, n patients [2, 6]: 932 | PCS High >3 × ULN (ALT) and >2 × ULN (Total Bilirubin), % patients [2, 7]: (0.0) % | PCS High >3 × ULN (ALT) and >2 × ULN (Total Bilirubin), n patients [2, 7]: 1 | Treatment-emergent ALP >2 × ULN, % patients [2, 7]: (0.5) % | Treatment-emergent ALP >2 × ULN, n patients [2, 7]: 18 | Treatment-emergent ALP >ULN, % patients [2, 7]: (7.7) % | Treatment-emergent ALP >ULN, n patients [2, 7]: 308 | Treatment-emergent ALT >3 × ULN, % patients [2, 7]: (1.1) % | Treatment-emergent ALT >3 × ULN, n patients [2, 7]: 44 | Treatment-emergent ALT >ULN, % patients [2, 7]: (32.9) % | Treatment-emergent ALT >ULN, n patients [2, 7]: 1308 | Treatment-emergent Total Bilirubin >2 × ULN, % patients [2, 7]: (0.5) % | Treatment-emergent Total Bilirubin >2 × ULN, n patients [2, 7]: 21 | Treatment-emergent Total Bilirubin >ULN, % patients [2, 7]: (7.5) % | Treatment-emergent Total Bilirubin >ULN, n patients [2, 7]: 297 | Hemoglobin, greatest mean change from baseline excluding Visit 9 ([2]; final visit): -1.1 g/L
